# Assay results published in patent US5198445A, “Composition and use of substituted 3-thio-2-propynenitriles as industrial antimicrobials” (The Dow Chemical Company, priority 1992, dated 1993).
# Where two headings read alike, the source gives them in different places.
# Legend:
# [1] = tested on: Enterobacter aerogenes (Ea); assay: MIC in nutrient agar, Enterobacter aerogenes; assay type: cell-based, Enterobacter aerogenes ATCC 13048
# Protocol: (§1) The minimum inhibitory concentration (MIC) for the compounds listed in Table I is determined for 9 bacteria, using nutrient agar, and 7 yeast and fungi, using malt yeast agar. A one percent solution of the test compound is prepared in a mixture of acetone and water. Nutrient agar is prepared at pH 6.8, representing a neutral medium, and at pH 8.2, representing an alkaline medium. The nutrient agars are prepared by adding 23 g of nutrient agar to one-liter of deionized water. In addition, the alkaline medium is prepared by adjusting a 0.04M solution of N-[tris-(hydroxymethyl)methyl]-glycine buffered deionized water with concentrated sodium hydroxide to a pH of […]. Malt yeast agar is prepared by adding 3 g yeast extract and 45 g malt agar per liter of deionized water. The specific agar is dispensed in 30 ml aliquots into 25×200 mm test tubes, capped and autoclaved for 15 minutes at 115° C. The test tubes containing the agar are cooled in a water bath until the temperature of the agar is 48° C. Then, an appropriate amount of the one percent solution of the test compound is added (except in the controls where no compound is added) to the respective test tubes so that the final concentrations are 500, 250, 100, 50, 25, 10, 5, 2.5, 1.0 and zero parts per million of the test compound in the agar, thus having a known concentration of test compound dispersed therein. The contents of the test tubes are then transferred to respective petri plates. After drying for 24 hours, the petri plates containing nutrient agar are inoculated with bacteria and those containing malt yeast agar are inoculated with yeast and fungi.
# (§2) The inoculation with bacteria is accomplished by using the following procedure. Twenty-four hour-cultures of each of the bacteria are prepared by incubating the respective bacteria in tubes containing nutrient broth for 24 hours at 30° C. in a shaker. Dilutions of each of the 24 hour-cultures are made so that nine separate suspensions (one for each of the nine test bacteria) are made, each containing 10^8 colony forming units (CFU) per ml of suspension of a particular bacteria. Aliquots of 0.3 ml of each of the bacterial suspensions are used to fill the individual wells of Steer's Replicator. For each microbial suspension, 0.3 ml was used to fill three wells (i.e., three wells of 0.3 ml each) so that for the nine different bacteria, 27 wells are filled. The Steer's Replicator is then used to inoculate both the neutral and alkaline pH nutrient agar petri plates.
# (§3) The inoculated petri plates are incubated at 30° C. for 48 hours and then read to determine if the test compound which is incorporated into the agar prevented growth of the respective bacteria.
# (§4) Table II lists the bacteria, yeast and fungi used in the MIC test described above along with their respective American Type Culture Collection (ATCC) identification numbers.
# (§5) The following MIC and MEC antimicrobial tests, whose results are shown in Tables XIII-XVII, are performed using the same methods as described hereinabove.
# [2] = tested on: Trichoderma viride (Tv); assay: MIC in malt yeast agar, Trichoderma viride; assay type: cell-based, Trichoderma viride ATCC 8678; conditions: read-out: Minimum Inhibitory Concentration, Tv
# Protocol: as §1
# (§6) The inoculation with the yeast and fungi is accomplished as follows. Cultures of yeast and fungi are incubated for seven days on malt yeast agar at 30° C. These cultures are used to prepare suspensions by the following procedure. A suspension of each organism is prepared by adding 10 ml of sterile saline and 10 microliters of octylphenoxy polyethoxy ethanol (TRITON® X-100, a trademark of Rohm & Haas Company) to the agar slant of yeast or fungi. The sterile saline/octylphenoxy polyethoxy ethanol solution is then agitated with a sterile swab to suspend the microorganism grown on the slant. Each resulting suspension is diluted into sterile saline (1 part suspension: 9 parts sterile saline). Aliquots of these dilutions are placed in individual wells of Steer's Replicator and petri plates inoculated as previously described. The petri plates are incubated at 30° C. and read after 48 hours for yeast and 72 hours for fungi.
# as §4, §5
# [3] = Degradation of Z isomer to 3-methylthio-2-propynenitrile; assay type: physicochemical
# Excerpt: It has also been discovered that the Z isomer of an appropriately-substituted 2-chloro-3-thio-2-propenenitrile precursor may degrade in situ to a like-substituted 3-thio-2-propynenitrile.
# [4] = tested on: Aspergillus niger (An); assay: MIC in malt yeast agar, Aspergillus niger; assay type: cell-based, Aspergillus niger ATCC 16404; conditions: read-out: Minimum Inhibitory Concentration, An
# Protocol: as §1, §6, §4, §5
# [5] = tested on: Klebsiella pneumoniae (Kp); assay: MIC in nutrient agar, Klebsiella pneumoniae; assay type: cell-based, Klebsiella pneumoniae ATCC 8308
# Protocol: as §1, §2, §3, §4, §5
# [6] = tested on: Pseudomonas aeruginosa (Pa); assay: MIC in nutrient agar, Pseudomonas aeruginosa; assay type: cell-based, Pseudomonas aeruginosa ATCC 10145
# Protocol: as §1, §2, §3, §4, §5
# [7] = tested on: Escherichia coli (Ec); assay: MIC in nutrient agar, Escherichia coli; assay type: cell-based, Escherichia coli ATCC 11229
# Protocol: as §1, §2, §3, §4, §5
# [8] = tested on: Proteus vulgaris (Pv); assay: MIC in nutrient agar, Proteus vulgaris; assay type: cell-based, Proteus vulgaris ATCC 881
# Protocol: as §1, §2, §3, §4, §5
# [9] = tested on: Penicillium chrysogenum (Pc); assay: MIC in malt yeast agar, Penicillium chrysogenum; assay type: cell-based, Penicillium chrysogenum ATCC 9480; conditions: read-out: Minimum Inhibitory Concentration, Pc
# Protocol: as §1, §6, §4, §5
# [10] = tested on: Pseudomonas aeruginosa (PRD-10); assay: MIC in nutrient agar, Pseudomonas aeruginosa PRD-10; assay type: cell-based, Pseudomonas aeruginosa ATCC 15442
# Protocol: as §1, §2, §3, §4, §5
# [11] = tested on: Staphylococcus aureus (Sa); assay: MIC in nutrient agar, Staphylococcus aureus; assay type: cell-based, Staphylococcus aureus ATCC 6538
# Protocol: as §1, §2, §3, §4, §5
# [12] = tested on: Bacteria Species; assay: MIC test in bacteria species, comparison over the organisms of Table XIV; assay type: cell-based, bacteria listed in Table II; conditions: pH 8.2
# Protocol: The minimum inhibitory concentration (MIC) for the compounds listed in Table I is determined for 9 bacteria, using nutrient agar, and 7 yeast and fungi, using malt yeast agar. A one percent solution of the test compound is prepared in a mixture of acetone and water. Nutrient agar is prepared at pH 6.8, representing a neutral medium, and at pH 8.2, representing an alkaline medium. The nutrient agars are prepared by adding 23 g of nutrient agar to one-liter of deionized water. In addition, the alkaline medium is prepared by adjusting a 0.04M solution of N-[tris-(hydroxymethyl)methyl]-glycine buffered deionized water with concentrated sodium hydroxide to a pH of […]. Malt yeast agar is prepared by adding 3 g yeast extract and 45 g malt agar per liter of deionized water. The specific agar is dispensed in 30 ml aliquots into 25×200 mm test tubes, capped and autoclaved for 15 minutes at 115° C. The test tubes containing the agar are cooled in a water bath until the temperature of the agar is 48° C. […]
# The inoculated petri plates are incubated at 30° C. for 48 hours and then read to determine if the test compound which is incorporated into the agar prevented growth of the respective bacteria. […]
# [13] = tested on: Candida albicans (Ca); assay: MIC in malt yeast agar, Candida albicans; assay type: cell-based, Candida albicans ATCC 10231; conditions: read-out: Minimum Inhibitory Concentration, Ca
# Protocol: as §1, §6, §4, §5
# [14] = tested on: Saccharomyces cerevisiae (Sc); assay: MIC in malt yeast agar, Saccharomyces cerevisiae; assay type: cell-based, Saccharomyces cerevisiae ATCC 4105; conditions: read-out: Minimum Inhibitory Concentration, Sc
# Protocol: as §1, §6, §4, §5
# [15] = tested on: Fusarium oxysporum (Fo); assay: MIC in malt yeast agar, Fusarium oxysporum; assay type: cell-based, Fusarium oxysporum ATCC 48112; conditions: read-out: Minimum Inhibitory Concentration, Fo
# Protocol: as §1, §6, §4, §5
# [16] = tested on: Salmonella choleraesuis (Sc); assay: MIC in nutrient agar, Salmonella choleraesuis; assay type: cell-based, Salmonella choleraesuis ATCC 10708
# Protocol: as §1, §2, §3, §4, §5
# [17] = tested on: Bacillus subtilis (Bs); assay: MIC in nutrient agar, Bacillus subtilis; assay type: cell-based, Bacillus subtilis ATCC 8473
# Protocol: as §1, §2, §3, §4, §5
# [18] = tested on: Aureobasidium pullulan (Ap); assay: MIC in malt yeast agar, Aureobasidium pullulan; assay type: cell-based, Aureobasidium pullulan ATCC 16622; conditions: read-out: Minimum Inhibitory Concentration, Ap
# Protocol: as §1, §6, §4, §5
# [19] = Klebsiella aerogenes, pH 6.8, read-out: Minimum Inhibitory Concentration, Ea
# [20] = Klebsiella aerogenes, pH 8.2, read-out: Minimum Inhibitory Concentration, Ea
# [21] = pH 6.8, read-out: Minimum Inhibitory Concentration, Kp
# [22] = pH 8.2, read-out: Minimum Inhibitory Concentration, Kp
# [23] = pH 6.8, read-out: Minimum Inhibitory Concentration, Pa
# [24] = pH 8.2, read-out: Minimum Inhibitory Concentration, Pa
# [25] = Escherichia coli, pH 6.8, read-out: Minimum Inhibitory Concentration, Ec
# [26] = Escherichia coli, pH 8.2, read-out: Minimum Inhibitory Concentration, Ec
# [27] = pH 6.8, read-out: Minimum Inhibitory Concentration, Pv
# [28] = pH 8.2, read-out: Minimum Inhibitory Concentration, Pv
# [29] = Pseudomonas aeruginosa, pH 6.8, read-out: Minimum Inhibitory Concentration, PRD
# [30] = Salmonella enterica, CHOLERAESUIS, pH 6.8, read-out: Minimum Inhibitory Concentration, Sc
# [31] = Salmonella enterica, CHOLERAESUIS, pH 8.2, read-out: Minimum Inhibitory Concentration, Sc
# [32] = Pseudomonas aeruginosa, pH 8.2; read-out: Minimum Inhibitory Concentration, PRD
# [33] = Staphylococcus aureus, pH 6.8; read-out: Minimum Inhibitory Concentration, Sa
# [34] = Staphylococcus aureus, pH 8.2; read-out: Minimum Inhibitory Concentration, Sa
# [35] = Bacillus subtilis, pH 6.8; read-out: Minimum Inhibitory Concentration, Bs
# [36] = Bacillus subtilis, pH 8.2; read-out: Minimum Inhibitory Concentration, Bs
Compound,"MIC [1, 19] [µg/mL]","MIC [1, 20] [µg/mL]","MIC [5, 21] [µg/mL]","MIC [5, 22] [µg/mL]","MIC [6, 23] [µg/mL]","MIC [6, 24] [µg/mL]","MIC [7, 25] [µg/mL]","MIC [7, 26] [µg/mL]","MIC [8, 27] [µg/mL]","MIC [8, 28] [µg/mL]","MIC [10, 29] [µg/mL]",MIC [14] [µg/mL],"MIC [16, 30] [µg/mL]","MIC [16, 31] [µg/mL]",MIC ([2]; malt yeast agar) [µg/mL],MIC ([4]; malt yeast agar) [µg/mL],MIC ([9]; malt yeast agar) [µg/mL],"MIC [10, 32] [µg/mL]","MIC [11, 33] [µg/mL]","MIC [11, 34] [µg/mL]",also measured
"CS/C=C(\Cl)C#N [Compound I, Z isomer of 2-chloro-3-(methylthio)-2-propenenitrile]",50,10,50,10,50,10,50,10,50,5,50,100,50,10,–,–,–,–,–,–,"MIC [2]: 50 µg/mL; half-life for the degradation of the Z isomer to 3-methylthio-2-propynenitrile ([3]; pH 7): approximately two; half-life for the degradation of the Z isomer to 3-methylthio-2-propynenitrile ([3]; pH 9): approximately two; MIC [4]: 50 µg/mL; MIC [9]: 50 µg/mL; MIC ([10]; Pseudomonas aeruginosa, pH 8.2, read-out: Minimum Inhibitory Concentration, PRD): 10 µg/mL; MIC ([11]; Staphylococcus aureus, pH 6.8, read-out: Minimum Inhibitory Concentration, Sa): 50 µg/mL; MIC ([11]; Staphylococcus aureus, pH 8.2, read-out: Minimum Inhibitory Concentration, Sa): 10 µg/mL; antimicrobial activity compared with 3-methylthio-2-propynenitrile (Compound A) [12]: essentially equivalent; antimicrobial activity relative to the E isomer (Compound H) [12]: 25-50 times greater; MIC [13]: 100 µg/mL; MIC [15]: 100 µg/mL; MIC ([17]; Bacillus subtilis, pH 6.8, read-out: Minimum Inhibitory Concentration, Bs): 50 µg/mL; MIC ([17]; Bacillus subtilis, pH 8.2, read-out: Minimum Inhibitory Concentration, Bs): 10 µg/mL; MIC [18]: 50 µg/mL"
"CCCCCCCCCCSC#CC#N [E, 3-decylthio-2-propynenitrile]",> 500,> 500,> 500,> 500,> 500,500,> 500,–,> 500,> 500,> 500,25,> 500,> 500,500,> 500,500,25,25,25,"MIC ([7]; Escherichia coli, pH 8.2; read-out: Minimum Inhibitory Concentration, Ec): 100 µg/mL; MIC ([13]; malt yeast agar): > 500 µg/mL; MIC ([15]; malt yeast agar): 500 µg/mL; MIC [17, 35]: 100 µg/mL; MIC [17, 36]: 25 µg/mL; MIC ([18]; malt yeast agar): > 500 µg/mL"
"CCCCCCCCCCCCSC#CC#N [F, 3-dodecylthio-2-propynenitrile]",–,–,> 500,> 500,> 500,500,–,> 500,> 500,> 500,–,–,–,–,> 500,> 500,500,100,> 500,25,"MIC ([1]; Klebsiella aerogenes, pH 6.8; read-out: Minimum Inhibitory Concentration, Ea): > 500 µg/mL; MIC ([1]; Klebsiella aerogenes, pH 8.2; read-out: Minimum Inhibitory Concentration, Ea): > 500 µg/mL; MIC ([7]; Escherichia coli, pH 6.8; read-out: Minimum Inhibitory Concentration, Ec): > 500 µg/mL; MIC ([10]; Pseudomonas aeruginosa, pH 6.8; read-out: Minimum Inhibitory Concentration, PRD): > 500 µg/mL; MIC ([13]; malt yeast agar): > 500 µg/mL; MIC ([14]; malt yeast agar): > 500 µg/mL; MIC ([15]; malt yeast agar): > 500 µg/mL; MIC ([16]; Salmonella enterica, CHOLERAESUIS, pH 6.8; read-out: Minimum Inhibitory Concentration, Sc): > 500 µg/mL; MIC ([16]; Salmonella enterica, CHOLERAESUIS, pH 8.2; read-out: Minimum Inhibitory Concentration, Sc): > 500 µg/mL; MIC [17, 35]: 100 µg/mL; MIC [17, 36]: 100 µg/mL; MIC ([18]; malt yeast agar): > 500 µg/mL"
